{
  "source": "patent US20240018466A1",
  "about": "“METHOD FOR INDUCING SALMONELLA ENTERITIDIS INTO VBNC STATE BY SODIUM HYPOCHLORITE” (Zhejiang Academy of Agricultural Sciences, priority 2022, published 2024)",
  "key": {"S. Enteritidis CVCC 1806 [1]": {"test_system": "S. Enteritidis CVCC 1806", "assay": "Counts of live cells by Live and Dead BacLight SYTO9/PI staining and flow cytometry after NaClO stress treatment", "format": "cell-based, Salmonella enteritidis", "experimental": "the NaClO stock solution of NaClO disinfectant solution containing 56.8 mg/mL chlorine was diluted to 100 mg/L with sterilized sterile water for later use, and 0.5 ml of bacterial suspension (10^9 CFU/mL) and 100 mg/L NaClO solution were taken respectively into a sterile EP tube. The products in the sterile EP tube were vortex-mixed, and the stress concentration in the final system was 50 mg/L.\nThe mixed reagent was placed at room temperature, and systems were obtained for processing every 0.5 h within a stress treatment for up to 3 h, and 100 μL 1.5% Na2S2O3 was added to terminate the reaction.\nCounts of live cells: the concentration of bacterial suspension was adjusted to 10^7-10^9 CFU/mL, and live, dead and injured bacteria were distinguished using commercial Live and Dead BacLight test kits (Molecular Probes, Carlsbad, CA, USA). […]"}, "S. Enteritidis CVCC 1806 [2]": {"test_system": "S. Enteritidis CVCC 1806", "assay": "Counts of culturable cells by plate counting method after NaClO stress treatment", "format": "cell-based, Salmonella enteritidis", "conditions": "after 2.5 h of treatment with 50 mg/L NaClO solution, room temperature; FIG. 1"}},
  "data": [
    {"smiles": "OCl", "note": "[NaClO, sodium hypochlorite]", "values": [
      {"measurement": "total content of live cells and bacteria in the sub-lethal injury state in the system", "setting": "S. Enteritidis CVCC 1806 [1]; after 2.5 h of treatment with 50 mg/L NaClO solution, flow cytometry", "value": 60.03, "unit": "%"},
      {"measurement": "induction of VBNC state", "setting": "S. Enteritidis CVCC 1806 [1]; after 2.5 h of treatment with 50 mg/L NaClO, live minus culturable cells at maximum", "value": "enter the VBNC state"},
      {"measurement": "number of culturable cells", "setting": "S. Enteritidis CVCC 1806 [2]", "value": 0, "unit": "CFU/ml"}
    ]}
  ]
}
